Data as given in ChEMBL document CHEMBL3885861, “Open TG-GATES”.

Species on record: Rattus norvegicus
Assay: Open TG-GATES - Regimen: Single
Format: toxicity, organism-based, Sprague-Dawley
Set-up: regimen Single, gender Male, age 6 weeks
Settings: in vivo, iv, 120 mg/kg, route intravenous injection, dose level High; for APTT / Bas / Eos / Fbg / Hb / Ht / Lym / MCH / MCHC / MCV / Mono / Neu / PT / Plat / RBC / Ret / WBC: tissue Blood; for KIDNEY_L / KIDNEY_R / KIDNEY_TOTAL: tissue Kidney; for LIVER: tissue Liver; for A/G / ALP / ALT / AST / BUN / CRE / Ca / Cl / DBIL / GLC / IP / K / LDH / Na / PL / RALB / TBIL / TC / TG / TP / gamma-GTP: tissue Plasma

CN(C)c1ncnc2c1ncn2[C@@H]1O[C@H](CO)[C@@H](N)[C@H]1O [PUROMYCIN AMINONUCLEOSIDE]
TERMINAL_BW (3 h): 210.5 g | APTT (3 h): 22.4 s | Bas (3 h): 0% | Eos (3 h): 0.8% | Fbg (3 h): 278.6 mg/dL | Hb (3 h): 12.8 g/dL | Ht (3 h): 37.9% | Lym (3 h): 44.4% | MCH (3 h): 21.1 pg | MCHC (3 h): 33.8% | MCV (3 h): 62.5 fL | Mono (3 h): 3% | Neu (3 h): 51.2% | PT (3 h): 16.3 s | Plat (3 h): 116 x10_4/uL | RBC (3 h): 607 x10_4/ul | Ret (3 h): 6.7% | WBC (3 h): 133.5 x10_2/uL | KIDNEY_L (3 h): 1 g | KIDNEY_R (3 h): 0.9 g | KIDNEY_TOTAL (3 h): 1.9 g | LIVER (3 h): 9 g | A/G (3 h): 1.3 | ALP (3 h): 1280.6 IU/L | ALT (3 h): 43.4 IU/L | AST (3 h): 82.8 IU/L | BUN (3 h): 13.8 mg/dL | CRE (3 h): 0.2 mg/dL | Ca (3 h): 11 mg/dL | Cl (3 h): 104.8 meq/L | DBIL (3 h): 0.002 mg/dL | GLC (3 h): 163.2 mg/dL | IP (3 h): 9.3 mg/dL | K (3 h): 4.1 meq/L | LDH (3 h): 162.8 IU/L | Na (3 h): 141.4 meq/L | PL (3 h): 140.4 mg/dL | RALB (3 h): 3 g/dL | TBIL (3 h): 0.032 mg/dL | TC (3 h): 69 mg/dL | TG (3 h): 88.2 mg/dL | TP (3 h): 5.3 g/dL | gamma-GTP (3 h): 1.4 IU/L | TERMINAL_BW (6 h): 213.9 g | APTT (6 h): 22.1 s | Bas (6 h): 0% | Eos (6 h): 0.6% | Fbg (6 h): 304.8 mg/dL | Hb (6 h): 12.6 g/dL | Ht (6 h): 37.5% | Lym (6 h): 43.2% | MCH (6 h): 20.7 pg | MCHC (6 h): 33.6% | MCV (6 h): 61.6 fL | Mono (6 h): 3.6% | Neu (6 h): 51.2% | PT (6 h): 15.8 s | Plat (6 h): 121.6 x10_4/uL | RBC (6 h): 608.8 x10_4/ul | Ret (6 h): 6.9% | WBC (6 h): 133.1 x10_2/uL | KIDNEY_L (6 h): 0.9 g | KIDNEY_R (6 h): 1 g | KIDNEY_TOTAL (6 h): 1.9 g | LIVER (6 h): 9.3 g | A/G (6 h): 1.3 | ALP (6 h): 1220.8 IU/L | ALT (6 h): 40.8 IU/L | AST (6 h): 75 IU/L | BUN (6 h): 11.6 mg/dL | CRE (6 h): 0.1 mg/dL | Ca (6 h): 11.3 mg/dL | Cl (6 h): 103.6 meq/L | DBIL (6 h): 0.004 mg/dL | GLC (6 h): 165.2 mg/dL | IP (6 h): 10.4 mg/dL | K (6 h): 4.3 meq/L | LDH (6 h): 135.8 IU/L | Na (6 h): 140 meq/L | PL (6 h): 151 mg/dL | RALB (6 h): 3 g/dL | TBIL (6 h): 0.042 mg/dL | TC (6 h): 79.8 mg/dL | TG (6 h): 60.4 mg/dL | TP (6 h): 5.4 g/dL | gamma-GTP (6 h): 1.6 IU/L | TERMINAL_BW (9 h): 213.9 g | APTT (9 h): 22.8 s | Bas (9 h): 0% | Eos (9 h): 1% | Fbg (9 h): 298.6 mg/dL | Hb (9 h): 12.8 g/dL | Ht (9 h): 38.3% | Lym (9 h): 56% | MCH (9 h): 20.9 pg | MCHC (9 h): 33.5% | MCV (9 h): 62.5 fL | Mono (9 h): 2.8% | Neu (9 h): 39.6% | PT (9 h): 15.4 s | Plat (9 h): 116 x10_4/uL | RBC (9 h): 614 x10_4/ul | Ret (9 h): 6.9% | WBC (9 h): 117.1 x10_2/uL | KIDNEY_L (9 h): 1 g | KIDNEY_R (9 h): 1 g | KIDNEY_TOTAL (9 h): 2 g | LIVER (9 h): 8.2 g | A/G (9 h): 1.2 | ALP (9 h): 1175.4 IU/L | ALT (9 h): 42 IU/L | AST (9 h): 79.6 IU/L | BUN (9 h): 11.8 mg/dL | CRE (9 h): 0.1 mg/dL | Ca (9 h): 10.8 mg/dL | Cl (9 h): 103.4 meq/L | DBIL (9 h): 0 mg/dL | GLC (9 h): 176.4 mg/dL | IP (9 h): 10.3 mg/dL | K (9 h): 4.2 meq/L | LDH (9 h): 129.2 IU/L | Na (9 h): 139.6 meq/L | PL (9 h): 136.6 mg/dL | RALB (9 h): 3 g/dL | TBIL (9 h): 0.03 mg/dL | TC (9 h): 75.4 mg/dL | TG (9 h): 56.6 mg/dL | TP (9 h): 5.4 g/dL | gamma-GTP (9 h): 1.6 IU/L | TERMINAL_BW (24 h): 212.8 g | APTT (24 h): 20.5 s | Bas (24 h): 0% | Eos (24 h): 0.6% | Fbg (24 h): 343 mg/dL | Hb (24 h): 12.9 g/dL | Ht (24 h): 37.4% | Lym (24 h): 85% | MCH (24 h): 20.5 pg | MCHC (24 h): 34.6% | MCV (24 h): 59.4 fL | Mono (24 h): 3.8% | Neu (24 h): 9.6% | PT (24 h): 15.7 s | Plat (24 h): 121.3 x10_4/uL | RBC (24 h): 629 x10_4/ul | Ret (24 h): 4.1% | WBC (24 h): 73.2 x10_2/uL | KIDNEY_L (24 h): 0.9 g | KIDNEY_R (24 h): 0.9 g | KIDNEY_TOTAL (24 h): 1.8 g | LIVER (24 h): 9.4 g | A/G (24 h): 1.3 | ALP (24 h): 1135 IU/L | ALT (24 h): 39.8 IU/L | AST (24 h): 70 IU/L | BUN (24 h): 27.2 mg/dL | CRE (24 h): 0.2 mg/dL | Ca (24 h): 11.4 mg/dL | Cl (24 h): 103.4 meq/L | DBIL (24 h): 0 mg/dL | GLC (24 h): 171.8 mg/dL | IP (24 h): 10.5 mg/dL | K (24 h): 4.8 meq/L | LDH (24 h): 142.8 IU/L | Na (24 h): 141 meq/L | PL (24 h): 142.4 mg/dL | RALB (24 h): 3.2 g/dL | TBIL (24 h): 0.028 mg/dL | TC (24 h): 79.4 mg/dL | TG (24 h): 59.2 mg/dL | TP (24 h): 5.8 g/dL | gamma-GTP (24 h): 1.4 IU/L
